Tested on: K-562 leukemia growth, % test/control
Test: Anticancer human tumor K-562 cell line growth inhibition;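 note: spheroids exposed to compounds for 7 days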;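 for viability, T/C: 100% = DMSO vehicle wells and lower values mean fewer viable cells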
Conditions: spheroids with HUVEC and MSC; for IC50: curve of first compound; for viability, T/C: stronger effect = lower value
How it was run: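 Drug combinations with the LSD1 inhibitor iadademstat tested on tumor cells co-cultured as spheroids with endothelial cells and mesenchymal stem cells. Concentrations descended in half-log increments from clinical Cmax or 10 microM.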

[1] = second compound 0.1 µM, first compound 0.000949 µM
[2] = second compound 0.1 µM, first compound 0.003 µM
[3] = second compound 0.1 µM, first compound 0.00949 µM
[4] = second compound 0.1 µM, first compound 0.03 µM
[5] = second compound 0.1 µM, first compound 0.0949 µM
[6] = second compound 0.1 µM, first compound 0.3 µM
[7] = second compound 0.316 µM, first compound 0.000949 µM
[8] = second compound 0.316 µM, first compound 0.003 µM
[9] = second compound 0.316 µM, first compound 0.00949 µM
[10] = second compound 0.316 µM, first compound 0.03 µM
[11] = second compound 0.316 µM, first compound 0.0949 µM
[12] = second compound 0.316 µM, first compound 0.3 µM
[13] = second compound 1 µM, first compound 0.000949 µM
[14] = second compound 1 µM, first compound 0.003 µM
[15] = second compound 1 µM, first compound 0.00949 µM
[16] = second compound 1 µM, first compound 0.03 µM
[17] = second compound 1 µM, first compound 0.0949 µM
[18] = second compound 1 µM, first compound 0.3 µM
[19] = second compound 3.16 µM, first compound 0.000949 µM
[20] = second compound 3.16 µM, first compound 0.003 µM
[21] = second compound 3.16 µM, first compound 0.00949 µM
[22] = second compound 3.16 µM, first compound 0.03 µM
[23] = second compound 3.16 µM, first compound 0.0949 µM
[24] = second compound 3.16 µM, first compound 0.3 µM
[25] = second compound 10 µM, first compound 0.000949 µM
[26] = second compound 10 µM, first compound 0.003 µM
[27] = second compound 10 µM, first compound 0.00949 µM
[28] = second compound 10 µM, first compound 0.03 µM
[29] = second compound 10 µM, first compound 0.0949 µM
[30] = second compound 10 µM, first compound 0.3 µM

`CC[C@@]1(O)C(=O)OCc2c1cc1n(c2=O)Cc2cc3c(CN(C)C)c(O)ccc3nc2-1` + NC1CCC(NC2CC2c2ccccc2)CC1 was tested, and the IC50 (second compound 0.1 µM) was 1.7 nM, the IC50 (second compound 0.316 µM) was 1.73 nM and the IC50 (second compound 1 µM) was 1.69 nM. The IC50 (second compound 3.16 µM) was 1.77 nM, the IC50 (second compound 10 µM) was 1.53 nM and the viability, T/C (second compound 0.1 µM, first compound 0.000316 µM) was 98.9%. The viability, T/C (second compound 0.1 µM, first compound 0.001 µM) was 63.2%, the viability, T/C (second compound 0.1 µM, first compound 0.00316 µM) was 34.7% and the viability, T/C (second compound 0.1 µM, first compound 0.01 µM) was 16.3%. For the same compound, the viability, T/C (second compound 0.1 µM, first compound 0.0316 µM) was 8.26%, the viability, T/C (second compound 0.1 µM, first compound 0.1 µM) was 4.03% and the viability, T/C (second compound 0.316 µM, first compound 0.000316 µM) was 101%. The viability, T/C (second compound 0.316 µM, first compound 0.001 µM) was 64.6%, the viability, T/C (second compound 0.316 µM, first compound 0.00316 µM) was 33.9% and the viability, T/C (second compound 0.316 µM, first compound 0.01 µM) was 15.8%. It also gave a viability, T/C (second compound 0.316 µM, first compound 0.0316 µM) of 7.94%, a viability, T/C (second compound 0.316 µM, first compound 0.1 µM) of 3.55% and a viability, T/C (second compound 1 µM, first compound 0.000316 µM) of 99.5%. For the same compound, the viability, T/C (second compound 1 µM, first compound 0.001 µM) was 64.5%, the viability, T/C (second compound 1 µM, first compound 0.00316 µM) was 32.8% and the viability, T/C (second compound 1 µM, first compound 0.01 µM) was 14.4%. It also gave a viability, T/C (second compound 1 µM, first compound 0.0316 µM) of 6.59%, a viability, T/C (second compound 1 µM, first compound 0.1 µM) of 3.47% and a viability, T/C (second compound 3.16 µM, first compound 0.000316 µM) of 97.6%. The viability, T/C (second compound 3.16 µM, first compound 0.001 µM) was 65.3%, the viability, T/C (second compound 3.16 µM, first compound 0.00316 µM) was 34.5% and the viability, T/C (second compound 3.16 µM, first compound 0.01 µM) was 15.1%. The viability, T/C (second compound 3.16 µM, first compound 0.0316 µM) was 7.29%, the viability, T/C (second compound 3.16 µM, first compound 0.1 µM) was 4.79% and the viability, T/C (second compound 10 µM, first compound 0.000316 µM) was 94.3%. The viability, T/C (second compound 10 µM, first compound 0.001 µM) was 62.6%, the viability, T/C (second compound 10 µM, first compound 0.00316 µM) was 28.1% and the viability, T/C (second compound 10 µM, first compound 0.01 µM) was 12.8%. The viability, T/C (second compound 10 µM, first compound 0.0316 µM) was 5.5% and the viability, T/C (second compound 10 µM, first compound 0.1 µM) was 2.86%.
`CCc1c2c(nc3ccc(O)cc13)-c1cc3c(c(=O)n1C2)COC(=O)[C@]3(O)CC` + NC1CCC(NC2CC2c2ccccc2)CC1 was tested, and the IC50 (second compound 0.1 µM) was < 0.949 nM, the IC50 (second compound 0.316 µM) was < 0.949 nM and the IC50 (second compound 1 µM) was < 0.949 nM. The IC50 (second compound 3.16 µM) was < 0.949 nM, the IC50 (second compound 10 µM) was < 0.949 nM and the viability, T/C [1] was 5.18%. The viability, T/C [2] was 3.15%, the viability, T/C [3] was 1.66% and the viability, T/C [4] was 1.09%. For the same compound, the viability, T/C [5] was 0.45%, the viability, T/C [6] was 0.5% and the viability, T/C [7] was 5.49%. The viability, T/C [8] was 3.06%, the viability, T/C [9] was 1.72% and the viability, T/C [10] was 2.09%. For the same compound, the viability, T/C [11] was 0.56%, the viability, T/C [12] was 0.51% and the viability, T/C [13] was 5.31%. For the same compound, the viability, T/C [14] was 3.05%, the viability, T/C [15] was 1.8% and the viability, T/C [16] was 1.24%. It also gave a viability, T/C [17] of 1.88%, a viability, T/C [18] of 0.5% and a viability, T/C [19] of 5.35%. For the same compound, the viability, T/C [20] was 3.03%, the viability, T/C [21] was 1.7% and the viability, T/C [22] was 1.4%. The viability, T/C [23] was 0.45%, the viability, T/C [24] was 0.47% and the viability, T/C [25] was 4.28%. The viability, T/C [26] was 2.29%, the viability, T/C [27] was 1.7% and the viability, T/C [28] was 1.31%. It also gave a viability, T/C [29] of 0.58% and a viability, T/C [30] of 2.36%.
In the case of `Nc1ccn(C2OC(CO)C(O)C2(F)F)c(=O)n1` (stereo not given) + NC1CCC(NC2CC2c2ccccc2)CC1, the IC50 (second compound 0.1 µM) is reported as < 0.949 nM, the IC50 (second compound 0.316 µM) is reported as < 0.949 nM and the IC50 (second compound 1 µM) is reported as < 0.949 nM. The IC50 (second compound 3.16 µM) was < 0.949 nM, the IC50 (second compound 10 µM) was < 0.949 nM and the viability, T/C [1] was 24%. The viability, T/C [2] was 6.98%, the viability, T/C [3] was 5.69% and the viability, T/C [4] was 5.94%. It also gave a viability, T/C [5] of 6.11%, a viability, T/C [6] of 5.96% and a viability, T/C [7] of 25.4%. For the same compound, the viability, T/C [8] was 7.37%, the viability, T/C [9] was 5.62% and the viability, T/C [10] was 5.72%. It also gave a viability, T/C [11] of 7.48%, a viability, T/C [12] of 6.94% and a viability, T/C [13] of 27.7%. The viability, T/C [14] was 6.4%, the viability, T/C [15] was 5.72% and the viability, T/C [16] was 6.07%. It also gave a viability, T/C [17] of 6%, a viability, T/C [18] of 6% and a viability, T/C [19] of 20.3%. For the same compound, the viability, T/C [20] was 6.36%, the viability, T/C [21] was 6.71% and the viability, T/C [22] was 5.11%. For the same compound, the viability, T/C [23] was 5.57%, the viability, T/C [24] was 5.77% and the viability, T/C [25] was 12.7%. For the same compound, the viability, T/C [26] was 5.54%, the viability, T/C [27] was 5.5% and the viability, T/C [28] was 4.88%. It also gave a viability, T/C [29] of 5.09% and a viability, T/C [30] of 5.72%.

Source: PubChem BioAssay AID1918948 (Molecular Pharmacology Branch, DTP, NCI, 2023)
